# Results: patent US10519148B2, “Acrylic acid derivative, preparation method and use in medicine thereof” (Zhejiang Hisun Pharmaceutical Co., Ltd., priority 2015, dated 2019)
# How the values were obtained:
# [1] = tested on: MCF-7 human breast cancer cell line; assay: Inhibition of MCF-7 cell proliferation (CCK-8); type: cell-based; settings: MCF7, MCF-7 cells, 72 hours
# Experimental: 1. Reagents and Consumables
# Cell Counting Reagent Kit 8 (Cell Counting Kit-8, Cat# CK04-13, Dojindo);
# 96-well culture plate (Cat #3599, Corning Costar);
# Medium and fetal bovine serum (GIBCO);
# Desktop Microplate Reader (SpectraMax M5 Microplate Reader, Molecular Devices);
# MCF-7 human breast cancer cell line (purchased from Shanghai cell resource center, Chinese Academy of Sciences).
# 2. Preparation of Reagents
# Preparation of culture medium: MEM+10% FBS+0.01 mg/ml Human recombinant insulin; Preparation of the compound: The compounds were diluted with DMSO to a final concentration of 10 mM;
# (1) The logarithmic growth phase cells were collected, counted, resuspended the cells with complete culture medium. The cells were adjusted to the appropriate concentration (determined according to the cell density optimization test results) and inoculated into 96-well plates, 100 μL of cell suspension per well. The cells were incubated in an incubator for 24 hours at 37° C. with 100% relative humidity, 5% CO2; […]
# (5) The absorbance at 450 nm wavelength was measured on a SpectraMax M5 Microplate Reader after gently shaking. The inhibition rate was calculated using the absorbance at 650 nm as a reference. […]
# [2] = tested on: MCF-7 carcinoma xenografts; assay: Tumor growth inhibition in SCID mice bearing MCF-7 carcinoma xenografts; type: in vivo; settings: for TGI (%) Day 4: Day 4, MCF-7 tumor bearing SCID mice; for TGI (%) Day 7: Day 7, MCF-7 tumor bearing SCID mice; for TGI (%) Day 11: Day 11, MCF-7 tumor bearing SCID mice; for TGI (%) Day 14: Day 14, MCF-7 tumor bearing SCID mice; for TGI (%) Day 18: Day 18, MCF-7 tumor bearing SCID mice; for TGI (%) Day 21: Day 21, MCF-7 tumor bearing SCID mice; for effect on tumor growth inhibition in human breast cancer MCF-7 bearing mice (in words): doses of 30 mg/kg and 50 mg/kg, within 21 days
# Experimental: 1. Purpose of the Experiment
# This test was used to evaluate the inhibitory effect of the test compounds, which were orally administered daily for 21 days, on the growth of transplanted tumor in MCF-7 tumor-bearing SCID mice.
# 2. Preparation of the Test Substance
# Solvent: 20% PEG400, 80% deionized water;
# Preparation of the test compounds: an appropriate amount of the test compounds were weighed, dissolved in PEG400 (20%), and then 80% amount of the sterilized deionized water was added, shocked evenly. The test compounds were freshly prepared daily before administration.
# Varieties and strains: SCID mice, SPF, female, 7 to 9 weeks old (16 to 22 grams), 100 mice, purchased from Beijing Huafu kang Biotechnology Co., Ltd., 100 mice with good health were used for the experiment, with the environment adaption time of 5 to 7 days.
# 4. MCF-7 Tumor Cell Culture
# MCF-7 cells were cultured in RPMI1640 medium containing 10% fetal bovine serum, cultured in 37° C., 5% CO2 incubator. Cells in logarithmic phase were taken before inoculating, digested with 0.25% trypsin, and then the cells were washed with PBS, resuspended in medium without serum and counted. The cell concentration was adjusted to 7.5×10^7 cells/mL (1:1 Matrigel, Extracellular Matrix Proteins, 356234, BD).
# 5. Animal Inoculation and Grouping
# Each mouse was inoculated subcutaneously in the right axilla with 0.2 mL cell suspension (1.5×10^7 cells/mouse) under aseptic conditions. Estrogen was administrated subcutaneously after inoculation. When the tumor grows to volume of about 150-250 mm^3, the mice with similar tumor volume and good tumor shape were selected (shape to be a single spherical as much as possible, no irregular shape or multiple tumors together), 10 mice per group.
# 6. Animal Administration and Observation
# The formation of tumor in the inoculated part of each group of animals was observed. The long diameter (Y) and the short diameter (X) of the tumor nodules were measured with a vernier caliper twice a week and calculated according to the following formula: The volume of tumor nodules (V): V=(X^2Y)/2.
# Evaluation index of antitumor activity: tumor growth inhibition rate TGI (%), relative tumor proliferation rate T/C (%). • Tumor growth inhibition rate TGI (%): TGI (%)=(Vc−Vt)/Vc×100. Where Vc is the tumor volume of the model control group and Vt is the tumor volume of the compound group.
# Relative tumor volume (RTV): RTV=Vn/V0. Where V0 is the tumor volume just before the first time administered, and Vn is the tumor volume at the time of measurement.
# Relative tumor proliferation rate: T/C (%): T/C (%)=TRTV/CRTV×100. Where, TRTV was RTV of the treatment group and CRTV was RTV of negative control group.
Structure (SMILES),IC50 [1],TGI (%) Day 4 ([2]; 30 mg/kg po qd),TGI (%) Day 7 ([2]; 30 mg/kg po qd),TGI (%) Day 11 ([2]; 30 mg/kg po qd),TGI (%) Day 14 ([2]; 30 mg/kg po qd),TGI (%) Day 18 ([2]; 30 mg/kg po qd),TGI (%) Day 21 ([2]; 30 mg/kg po qd),TGI (%) Day 4 ([2]; 50 mg/kg po qd),TGI (%) Day 7 ([2]; 50 mg/kg po qd),TGI (%) Day 11 ([2]; 50 mg/kg po qd),TGI (%) Day 14 ([2]; 50 mg/kg po qd),TGI (%) Day 18 ([2]; 50 mg/kg po qd),TGI (%) Day 21 ([2]; 50 mg/kg po qd),effect on tumor growth inhibition in human breast cancer MCF-7 bearing mice (in words) [2]
"C[C@@H]1Cc2c([nH]c3cccc(F)c23)[C@@H](c2c(F)cc(/C=C/C(=O)O)cc2F)N1CC1(F)CC1 [Example 12, (E)-3-(3,5-difluoro-4-((1R,3R)-5-fluoro-2-((1-fluorocyclopropyl)methyl)-3-methyl-2,3,4,9-tetrahydro-1H-pyrido[3,4-b]indol-1-yl)phenyl)acrylic acid]",1.45 nM,12.1%,25.9%,41.5%,53.6%,62.0%,73.4%,12.4%,25.4%,43.8%,59.6%,69.8%,79.4%,significant effect on tumor growth inhibition
"C[C@@H]1Cc2c([nH]c3ccccc23)[C@@H](c2c(F)cc(/C=C/C(=O)O)cc2F)N1CC1(F)CC1 [Example 1, (E)-3-(3,5-difluoro-4-((1R,3R)-2-((1-fluorocyclopropyl)methyl)-3-methyl-2,3,4,9-tetrahydro-1H-pyrido[3,4-b]indol-1-yl)phenyl)acrylic acid]",0.34 nM,12.3%,24.4%,34.5%,52.7%,65.7%,76.7%,16.9%,26.5%,38.8%,54.2%,66.9%,78.8%,significant effect on tumor growth inhibition
